Measurements published in patent US7029879B1, “Iodine uptake restoration in thyroid cancer” (University of Kentucky Research Foundation, priority 1999, dated 2006).

Legend:
[1] = test system: hNIS gene regions P (promoter), L (leader), C (coding); assay: Methylation-specific PCR of hNIS gene regions in treated cell lines; assay type: cell-based, human; for Methylation Status by Region P: key: mRNA expression (hNIS, TTF-1, Pax-8): +, positive; −, negative
Description: (§1) Cell lines, for evaluation of iodide-uptake and hNIS expression, were grown in phenol-red-free RPMI 1640 with 5% fetal bovine serum (FBS), 100 nM sodium selenite and 0.1 nM bovine TSH (basal medium) (20). They were plated at a density of 3–5×10^4 cells/9.4 cm^2, in triplicate in basal medium, and grown for 2–3 days at 37° C. in 5% CO2. They were treated with dimethylsulfoxide (DMSO, 25 μM daily for 3 days), sodium butyrate (0.5 or 1.0 mM), phenylacetate (pH 7.0, 5 or 10 mM) or 5-azacytidine (0.5 or 1.0 μM, in 25 μM DMSO, daily for 3 days) until control cells were 80% confluent (3–4 days), then changed to fresh basal medium and grown for an additional 24 hrs.
This method utilizes PCR primer pairs to distinguish methylated from unmethylated DNA in bisulfite-modified target DNA, in which bisulfite converts unmethylated cytosines to uracil (23,24). Genomic DNAs, from normal and tumoral human thyroid tissues and cell lines, were isolated by standard techniques (21) and 1.0 μg aliquots were denatured by NaOH (10 min at 37° C.), then treated with 10 mM hydroquinone and 3.0 M sodium bisulfite (pH 5.0 under mineral oil for 16 hrs at 50° C.). Modified DNA was purified on a resin column (Qiagen) and further treated with 0.3 N NaOH for 5 min prior to ethanol precipitation. The PCR mixture contained 16.6 mM ammonium sulfate, 67 mM Tris-HCl (pH 8.8), 6.7 mM MgCl2, 10 mM β-mercaptoethanol, 1.25 mM dNTPs, 0.2 μL TaqStart antibody, 1 U AmpliTaq DNA polymerase, 10 pmoles each of sense and antisense methylation-specific primers, and […] of bisulphite-modified DNA target. Primers used for analysis of the hNIS promoter CpG island methylation were selected for cytosine-rich regions, containing CpG dinucleotides near the 3′ end of the primers, hNIS-MET-P (sense, 5′ to 3′, TTAGGTTTGGAGGCGGA GTCGC (SEQ ID NO. 7) and antisense, 5′ to 3′, ACCGACTATCTATCCCT CTCCCTAAACG) (SEQ ID NO. 8) for a 143 bp product from methylated DNA and hNIS-UNMET-P (sense, 5′ to 3′, […] GAGTTGT (SEQ ID NO. 9) and antisense, 5′ to 3′, […] CCTAAACA) (SEQ ID NO. 10) for a 151 bp product from unmethylated genomic DNA. Additional sets of primers were similarly designed to analyze further downstream elements. They were: hNIS-MET-L (sense, […] (SEQ ID NO. 11) and antisense, GACCT CCATAAAAACGAATACG) (SEQ ID NO. 12) for a 265 bp product, with hNIS-UNMET-L (sense, […] (SEQ ID NO. 13), and antisense, […]) (SEQ ID NO. 14), for a 275 bp product, hNIS-MET-C (sense, […] (SEQ ID NO. 15) and antisense, […]) (SEQ ID NO. 16) for a 242 bp product, and hNIS-UNMET-C (sense, […] (SEQ ID NO. 17), and antisense, […]) (SEQ ID NO. 18), for a 252 bp product. The amplification conditions were: Taq polymerase activation at 95° C. for 5 min, 40 cycles of: denaturation at 94° C. for 20 s, annealing at 60° C. for 30 s and polymerization at 72° C. for 30 s. MS-PCR products were resolved by agarose gel electrophoresis and visualized by ethidium bromide staining and UV transillumination.

hNIS mRNA = hNIS mRNA re-expression by RT-PCR in treated human thyroid cell lines; assay type: cell-based; conditions: for hNIS mRNA expression despite treatment: MRO87, WRO82 and KAT-7 cell lines
Description: as §1
Total RNA and genomic DNA from: normal human thyroid, thyroid tumors, and cell lines (treated with agents described above), were isolated by the acid-guanidinium-phenol-chloroform method (21). All surgical samples were snap-frozen and stored at −80° C. until processed by homogenization in Trizol reagent (Life Technologies, Gaithersburg, Md.) while still frozen. Complementary DNA (cDNA) was synthesized from 1.0 μg of total RNA using MMLV reverse transcriptase (RT) with random-hexamer primers (Clontech, Palo Alto, Calif.). Each 50 μL polymerase chain reaction (PCR) vessel contained: 60 mM Tris HCl, pH 9.0, 15 mM ammonium sulfate, 3.5 mM MgCl2 (1.5 mM for hTTF-1), 250 μM dNTPs (Boehringer-Mannheim, Indianapolis, Ind.), 0.2 μM each primer pair, 1 U AmpliTaq DNA polymerase (Perkin-Elmer, Norwalk, Conn.), 0.2 μg TaqStart Antibody (Clontech) and 3% cDNA. β-actin amplification (primers, Stratagene, La Jolla, Calif.) confirmed cDNA integrity, purity, and template equivalence for semiquantification. PCR primers (upstream 5′ to 3′/downstream 5′ to 3′, in all cases) used for amplification were, for hNIS (5), CTGCCCCAGACCAGTACAT GCC (SEQ ID NO. 1)/[…] (SEQ ID NO. 2) (to amplify a coding region spanning four introns (4) yielding a 303 bp product from cDNA) and for Pax-8, […] (SEQ ID NO. 3)/[…] (SEQ ID NO. 4)((22) to amplify a 329 bp product). Amplification conditions for hNIS and Pax-8 were: denaturation (95° C.×5 min); 40 cycles of 20 sec at 95° C. and 60 sec at 68° C.; followed by extension at 72° C. for 3 min. The hTTF-1 product was amplified with intron spanning primers, […] (SEQ ID NO. 5)/[…] (SEQ ID NO. 6), which amplify a 263 bp fragment. The conditions were: 95° C. for 5 min; 45 cycles of 95° C. for 20 sec, 60° C. for 60 sec, and 72° C. for 30 sec; followed by extension at 72° C. for 3 min. The RT-PCR products were resolved on 2% agarose gels and visualized by ethidium bromide staining.

[2] = KAT-5, high: AzaC 1.0 μM, PhAc 10 mM
[3] = NPA'87, high: AzaC 1.0 μM, NaB 1.0 mM
[4] = KAK-1, high: AzaC 1.0 μM, NaB 1.0 mM, PhAc 10 mM
[5] = KAK-1, low: AzaC 0.5 μM, NaB 0.5 mM, PhAc 5.0 mM
[6] = KAT-5, high: AzaC 1.0 μM, NaB 1.0 mM, PhAc 10 mM
[7] = KAT-5, low: AzaC 0.5 μM, NaB 0.5 mM, PhAc 5.0 mM
[8] = KAT-10, low: AzaC 0.5 μM, NaB 0.5 mM, PhAc 5.0 mM
[9] = NPA'87, high: AzaC 1.0 μM, NaB 1.0 mM, PhAc 10 mM
[10] = NPA'87, low: AzaC 0.5 μM, NaB 0.5 mM, PhAc 5.0 mM

Nc1ncn([C@@H]2O[C@H](CO)[C@@H](O)[C@H]2O)c(=O)n1 [AzaC, 5-azacytidine]
methylation at the L and C regions after treatment ([1]; KAK-1, KAT-5, KAT-10 and NPA'87 (all four cell lines)): decreased methylation | Methylation Status by Region C ([1]; KAK-1, high: AzaC 1.0 μM): − | Methylation Status by Region L ([1]; KAK-1, high: AzaC 1.0 μM): − | Methylation Status by Region P ([1]; KAK-1, high: AzaC 1.0 μM): − | Methylation Status by Region C ([1]; KAK-1, low: AzaC 0.5 μM): − | Methylation Status by Region L ([1]; KAK-1, low: AzaC 0.5 μM): − | Methylation Status by Region P ([1]; KAK-1, low: AzaC 0.5 μM): − | Methylation Status by Region C [1, 2]: − | Methylation Status by Region L [1, 2]: − | Methylation Status by Region P [1, 2]: − | susceptibility to demethylation effects in the C region ([1]; KAT-5 and KAT-10 cells, C region compared with L region): less than that of the L region | Methylation Status by Region C ([1]; KAT-10, low: AzaC 0.5 μM): − | Methylation Status by Region L ([1]; KAT-10, low: AzaC 0.5 μM): − | Methylation Status by Region P ([1]; KAT-10, low: AzaC 0.5 μM): − | effect on methylation status of the P region ([1]; MRO87, WRO82 and KAT-7): did not affect the baseline demethylated status | demethylation of region C in response to treatment ([1]; MRO87, WRO82 and KAT-7, except minimal unmethylated product for WRO82): did not become demethylated | Methylation Status by Region C [1, 3]: − | Methylation Status by Region L [1, 3]: − | Methylation Status by Region P [1, 3]: − | hNIS mRNA (hNIS mRNA; [4]): + | hNIS mRNA (hNIS mRNA; [5]): + | re-expression of hNIS mRNA, comparison of the two concentrations (hNIS mRNA; KAK-1 cells, 0.5 μM vs 1.0 μM 5-azacytidine): comparable | hNIS mRNA (hNIS mRNA; [6]): + | hNIS mRNA (hNIS mRNA; [7]): − | hNIS mRNA (hNIS mRNA; [8]): + | hNIS mRNA expression despite treatment (hNIS mRNA): failed to express hNIS mRNA | hNIS mRNA (hNIS mRNA; [9]): + | hNIS mRNA (hNIS mRNA; [10]): −

CCCC(=O)[O-].[Na+] [NaB, sodium butyrate]
Methylation Status by Region C ([1]; KAT-10, high: NaB 1.0 mM): + | Methylation Status by Region L ([1]; KAT-10, high: NaB 1.0 mM): + | Methylation Status by Region P ([1]; KAT-10, high: NaB 1.0 mM): − | Methylation Status by Region C [1, 3]: + | Methylation Status by Region L [1, 3]: + | Methylation Status by Region P [1, 3]: − | effect on baseline methylation patterns in all three regions ([1]; NPA'87 and KAT-10): failed to demonstrate effects on altering baseline methylation patterns | hNIS mRNA (hNIS mRNA; [4]): − | hNIS mRNA (hNIS mRNA; [5]): − | hNIS mRNA (hNIS mRNA; [6]): − | hNIS mRNA (hNIS mRNA; [7]): − | hNIS mRNA (hNIS mRNA; KAT-10, high: NaB 1.0 mM, PhAc 10 mM): + | hNIS mRNA (hNIS mRNA; [8]): − | hNIS mRNA expression despite treatment (hNIS mRNA): failed to express hNIS mRNA | hNIS mRNA (hNIS mRNA; [9]): + | hNIS mRNA (hNIS mRNA; [10]): − | re-expression of hNIS mRNA (hNIS mRNA; NPA'87 and KAT-10): re-expression of hNIS mRNA
